Results from PubChem BioAssay (NCI).
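Following 48 hours of exposure in 96-well plates, responses at five concentrations were used to interpolate endpoints linearly. GI50 marks 50% less growth. TGI is the concentration that stops growth completely.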

Columns and labels:
Experiment in all cases: NCI tumour cell line growth inhibition, 48 h
786-0 renal = system: 786-0 renal
A498 renal = system: A498 renal
A549 NSCLC = system: A549 NSCLC
ACHN renal = system: ACHN renal
BT-549 breast = system: BT-549 breast
CAKI-1 renal = system: CAKI-1 renal
CCRF-CEM leukemia = system: CCRF-CEM leukemia
COLO 205 colon = system: COLO 205 colon
DU-145 prostate = system: DU-145 prostate
EKVX NSCLC = system: EKVX NSCLC
HCC-2998 colon = system: HCC-2998 colon
HCT-116 colon = system: HCT-116 colon
HCT-15 colon = system: HCT-15 colon
HL-60(TB) leukemia = system: HL-60(TB) leukemia
HOP-62 NSCLC = system: HOP-62 NSCLC
HOP-92 NSCLC = system: HOP-92 NSCLC
HS 578T breast = system: HS 578T breast
HT29 colon = system: HT29 colon
IGROV1 ovarian = system: IGROV1 ovarian
K-562 leukemia = system: K-562 leukemia
KM12 colon = system: KM12 colon
LOX IMVI melanoma = system: LOX IMVI melanoma
M14 melanoma = system: M14 melanoma
MALME-3M melanoma = system: MALME-3M melanoma
MCF7 breast = system: MCF7 breast
MDA-MB-231 breast = system: MDA-MB-231 breast
MDA-MB-435 = system: MDA-MB-435
MOLT-4 leukemia = system: MOLT-4 leukemia
NCI-H226 lung = system: NCI-H226 lung
NCI-H23 lung = system: NCI-H23 lung
NCI-H460 lung = system: NCI-H460 lung
NCI-H522 lung = system: NCI-H522 lung
NCI/ADR-RES ovarian = system: NCI/ADR-RES ovarian
OVCAR-3 ovarian = system: OVCAR-3 ovarian
OVCAR-4 ovarian = system: OVCAR-4 ovarian
OVCAR-5 ovarian = system: OVCAR-5 ovarian
OVCAR-8 ovarian = system: OVCAR-8 ovarian
PC-3 prostate = system: PC-3 prostate
RPMI-8226 leukemia = system: RPMI-8226 leukemia
RXF 393 renal = system: RXF 393 renal
SF-268 CNS = system: SF-268 CNS
SF-295 CNS = system: SF-295 CNS
SF-539 CNS = system: SF-539 CNS
SK-MEL-2 melanoma = system: SK-MEL-2 melanoma
SK-MEL-28 melanoma = system: SK-MEL-28 melanoma
SK-MEL-5 melanoma = system: SK-MEL-5 melanoma
SK-OV-3 ovarian = system: SK-OV-3 ovarian
SN12C renal = system: SN12C renal
SNB-19 CNS = system: SNB-19 CNS
SNB-75 CNS = system: SNB-75 CNS
SR leukemia = system: SR leukemia
SW-620 colon = system: SW-620 colon
T-47D breast = system: T-47D breast
U251 CNS = system: U251 CNS
UACC-257 melanoma = system: UACC-257 melanoma
UACC-62 melanoma = system: UACC-62 melanoma
UO-31 renal = system: UO-31 renal
MDA-N = system: MDA-N

SMILES: CNC(=O)c1cc2c(Oc3ccc(NC(=O)C4(C(=O)Nc5ccc(F)cc5)CC4)cc3)ccnc2cc1OC
- GI50 (786-0 renal): 3460 nM
- TGI (786-0 renal): > 100000 nM
- GI50 (A498 renal): 1280 nM
- TGI (A498 renal): 3270 nM
- GI50 (A549 NSCLC): 2820 nM
- TGI (A549 NSCLC): 16900 nM
- GI50 (ACHN renal): 2310 nM
- TGI (ACHN renal): > 100000 nM
- GI50 (BT-549 breast): 3010 nM
- TGI (BT-549 breast): 9600 nM
- GI50 (CAKI-1 renal): 1520 nM
- TGI (CAKI-1 renal): 3330 nM
- GI50 (CCRF-CEM leukemia): 3000 nM
- TGI (CCRF-CEM leukemia): > 100000 nM
- GI50 (COLO 205 colon): 2230 nM
- TGI (COLO 205 colon): 9130 nM
- GI50 (DU-145 prostate): 4060 nM
- TGI (DU-145 prostate): > 100000 nM
- GI50 (EKVX NSCLC): 3390 nM
- TGI (EKVX NSCLC): > 100000 nM
- GI50 (HCC-2998 colon): 5610 nM
- TGI (HCC-2998 colon): > 100000 nM
- GI50 (HCT-116 colon): 3230 nM
- TGI (HCT-116 colon): 14200 nM
- GI50 (HCT-15 colon): 2770 nM
- TGI (HCT-15 colon): > 100000 nM
- GI50 (HL-60(TB) leukemia): 2630 nM
- TGI (HL-60(TB) leukemia): 6630 nM
- GI50 (HOP-62 NSCLC): 2670 nM
- TGI (HOP-62 NSCLC): > 100000 nM
- GI50 (HOP-92 NSCLC): 1030 nM
- TGI (HOP-92 NSCLC): 4750 nM
- GI50 (HS 578T breast): 1110 nM
- TGI (HS 578T breast): 4690 nM
- GI50 (HT29 colon): 2420 nM
- TGI (HT29 colon): > 100000 nM
- GI50 (IGROV1 ovarian): 2320 nM
- TGI (IGROV1 ovarian): 8960 nM
- GI50 (K-562 leukemia): 370 nM
- TGI (K-562 leukemia): 3400 nM
- GI50 (KM12 colon): 196 nM
- TGI (KM12 colon): > 100000 nM
- GI50 (LOX IMVI melanoma): 2570 nM
- TGI (LOX IMVI melanoma): 8930 nM
- GI50 (M14 melanoma): 2450 nM
- TGI (M14 melanoma): 11200 nM
- GI50 (MALME-3M melanoma): 1660 nM
- TGI (MALME-3M melanoma): 9450 nM
- GI50 (MCF7 breast): 2550 nM
- TGI (MCF7 breast): > 100000 nM
- GI50 (MDA-MB-231 breast): 2410 nM
- TGI (MDA-MB-231 breast): > 100000 nM
- GI50 (MDA-MB-435): 2280 nM
- TGI (MDA-MB-435): 6640 nM
- GI50 (MOLT-4 leukemia): 2230 nM
- TGI (MOLT-4 leukemia): 8180 nM
- GI50 (NCI-H226 lung): 2470 nM
- TGI (NCI-H226 lung): 10700 nM
- GI50 (NCI-H23 lung): 2170 nM
- TGI (NCI-H23 lung): > 100000 nM
- GI50 (NCI-H460 lung): 3880 nM
- TGI (NCI-H460 lung): > 100000 nM
- GI50 (NCI-H522 lung): 2510 nM
- TGI (NCI-H522 lung): > 100000 nM
- GI50 (NCI/ADR-RES ovarian): 3560 nM
- TGI (NCI/ADR-RES ovarian): > 100000 nM
- GI50 (OVCAR-3 ovarian): 3480 nM
- TGI (OVCAR-3 ovarian): > 100000 nM
- GI50 (OVCAR-4 ovarian): 3550 nM
- TGI (OVCAR-4 ovarian): > 100000 nM
- GI50 (OVCAR-5 ovarian): 3170 nM
- TGI (OVCAR-5 ovarian): > 100000 nM
- GI50 (OVCAR-8 ovarian): 3770 nM
- TGI (OVCAR-8 ovarian): > 100000 nM
- GI50 (PC-3 prostate): 3090 nM
- TGI (PC-3 prostate): > 100000 nM
- GI50 (RPMI-8226 leukemia): 2600 nM
- TGI (RPMI-8226 leukemia): 55900 nM
- GI50 (RXF 393 renal): 1580 nM
- TGI (RXF 393 renal): 3530 nM
- GI50 (SF-268 CNS): 3060 nM
- TGI (SF-268 CNS): > 100000 nM
- GI50 (SF-295 CNS): 177 nM
- TGI (SF-295 CNS): 6260 nM
- GI50 (SF-539 CNS): 463 nM
- TGI (SF-539 CNS): 6560 nM
- GI50 (SK-MEL-2 melanoma): 2020 nM
- TGI (SK-MEL-2 melanoma): 5920 nM
- GI50 (SK-MEL-28 melanoma): 3680 nM
- TGI (SK-MEL-28 melanoma): > 100000 nM
- GI50 (SK-MEL-5 melanoma): 2370 nM
- TGI (SK-MEL-5 melanoma): 6510 nM
- GI50 (SK-OV-3 ovarian): 2940 nM
- TGI (SK-OV-3 ovarian): 9330 nM
- GI50 (SN12C renal): 1100 nM
- TGI (SN12C renal): > 100000 nM
- GI50 (SNB-19 CNS): 8020 nM
- TGI (SNB-19 CNS): > 100000 nM
- GI50 (SNB-75 CNS): 83.7 nM
- TGI (SNB-75 CNS): 2740 nM
- GI50 (SR leukemia): 2050 nM
- TGI (SR leukemia): 5990 nM
- GI50 (SW-620 colon): 2640 nM
- TGI (SW-620 colon): > 100000 nM
- GI50 (T-47D breast): 2710 nM
- TGI (T-47D breast): 16300 nM
- GI50 (U251 CNS): 3510 nM
- TGI (U251 CNS): > 100000 nM
- GI50 (UACC-257 melanoma): 3120 nM
- TGI (UACC-257 melanoma): > 100000 nM
- GI50 (UACC-62 melanoma): 1540 nM
- TGI (UACC-62 melanoma): 15000 nM
- GI50 (UO-31 renal): 1780 nM
- TGI (UO-31 renal): 6250 nM

SMILES: CC1(C)[C@@H]2CC[C@@]1(C)[C@@H]1O[C@@H](O[C@@H](CN)c3cc(Cl)c(OCc4ccccc4)c(OCc4ccccc4)c3)C[C@H]21
- TGI (A498 renal): 344 nM
- TGI (ACHN renal): 306 nM
- TGI (CAKI-1 renal): 301 nM
- TGI (CCRF-CEM leukemia): 364 nM
- TGI (DU-145 prostate): 332 nM
- TGI (EKVX NSCLC): 301 nM
- TGI (HL-60(TB) leukemia): 373 nM
- TGI (HT29 colon): 284 nM
- TGI (K-562 leukemia): 478 nM
- TGI (KM12 colon): 305 nM
- TGI (MALME-3M melanoma): 342 nM
- TGI (MCF7 breast): 262 nM
- TGI (MDA-MB-231 breast): 288 nM
- TGI (MDA-MB-435): 297 nM
- TGI (MDA-N): 284 nM
- TGI (MOLT-4 leukemia): 341 nM
- TGI (NCI-H522 lung): 357 nM
- TGI (OVCAR-3 ovarian): 306 nM
- TGI (OVCAR-4 ovarian): 298 nM
- TGI (OVCAR-5 ovarian): 302 nM
- TGI (PC-3 prostate): 292 nM
- TGI (RPMI-8226 leukemia): 225 nM
- TGI (RXF 393 renal): 288 nM
- TGI (SK-MEL-2 melanoma): 311 nM
- TGI (SK-MEL-28 melanoma): 384 nM
- TGI (SK-MEL-5 melanoma): 324 nM
- TGI (SR leukemia): 222 nM
- TGI (SW-620 colon): 430 nM
- TGI (U251 CNS): 293 nM
- TGI (UACC-257 melanoma): 322 nM
